In one data set the target is human orexin-1 receptor (Homo sapiens (Human), UniProt O43613). The experiment in a line: In vitro intracellular calcium measurements (FLIPR), antagonistic activity on orexin-1 receptor. Format: cell-based. As to conditions: read-out: IC50 OX1. The method, boiled down: (§1)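 CHO cells expressing human orexin-1 or orexin-2 receptor were seeded overnight, preincubated with antagonist for 120 min, then stimulated with agonist in a FLIPR Tetra.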

Another data set concerns the target human orexin-2 receptor (Homo sapiens (Human), UniProt O43614). The experiment in a line: In vitro intracellular calcium measurements (FLIPR), antagonistic activity on orexin-2 receptor. Conditions: read-out: IC50 OX2. It is filed as cell-based. The method, boiled down:
as §1

A short description of data set [1]: Measurement of brain and systemic concentration after oral administration. Format: in vivo. As to conditions: rat, brain, male wistar rats, oral 100 mg/kg, read-out: brain concentration [B]; for concentration at 3 h: formulated in 100% PEG400, sampled at 3 h; for concentration at 1 h: formulated in 10% PEG400/90% MC0.5%, sampled at 1 h. The procedure:
Measurement of Brain and Systemic Concentration after Oral Administration:
In order to assess brain penetration, the concentration of the compound is measured in plasma ([P]), and brain ([B]), sampled 1 h or 3 h (or at different time points) following oral administration (100 mg/kg) to male wistar rats (n=3). The compounds are formulated either in 100% PEG 400 or 10% PEG400/90% MC0.5%. Samples are collected in the same animal at the same time point (+/−5 min). Blood is sampled from the vena cava caudalis into containers with EDTA as anticoagulant and centrifuged to yield plasma. Brain is sampled after cardiac perfusion of 10 mL NaCl 0.9% and homogenized into one volume of cold phosphate buffer (pH 7.4). All samples are extracted with MeOH and analyzed by LC-MS/MS. Concentrations are determined with the help of calibration curves. Inter-individual variations between the three rats were limited. Particular compounds of the present invention tested as described above gave brain concentrations ([B]) as shown in Table 16 below; wherein the compounds of Examples 11-37 and 94 were formulated in 100% PEG400 and sampled at 3 h. All other examples below were formulated in 10% PEG400/90% MC0.5% and sampled at 1 h.

The next data set addresses CYP3A4 (Homo sapiens (Human), UniProt P08684). The experiment in a line: CYP3A4 inhibition assay (human liver microsomes, testosterone 6β-hydroxylation). As to conditions: read-out: CYP3A4 IC50, 40 μM testosterone. (Microsomes from liver hold many membrane-bound enzymes, among them those of drug oxidation.)
Where [2] appears, read: CHO cells expressing human orexin-1 receptor, FLIPR, 3 nM orexin-A agonist, 120 min antagonist incubation, geometric mean if determined several times.
[3] abbreviates: CHO cells expressing human orexin-2 receptor, FLIPR, 3 nM orexin-A agonist, 120 min antagonist incubation, geometric mean if determined several times.

This passage reports IC50 and concentration results from patent US9150566B2, “2-(1,2,3-triazol-2-yl)benzamide and 3-(1,2,3-triazol-2-YL)picolinamide derivatives as orexin receptor antagonists” (ACTELION PHARMACEUTICALS LTD., priority 2011, dated 2015).

pIC50: −log10 of the molar value. Where two headings read alike, the source gives them in different places.

Sequence of CYP3A4 (P08684 whole entry): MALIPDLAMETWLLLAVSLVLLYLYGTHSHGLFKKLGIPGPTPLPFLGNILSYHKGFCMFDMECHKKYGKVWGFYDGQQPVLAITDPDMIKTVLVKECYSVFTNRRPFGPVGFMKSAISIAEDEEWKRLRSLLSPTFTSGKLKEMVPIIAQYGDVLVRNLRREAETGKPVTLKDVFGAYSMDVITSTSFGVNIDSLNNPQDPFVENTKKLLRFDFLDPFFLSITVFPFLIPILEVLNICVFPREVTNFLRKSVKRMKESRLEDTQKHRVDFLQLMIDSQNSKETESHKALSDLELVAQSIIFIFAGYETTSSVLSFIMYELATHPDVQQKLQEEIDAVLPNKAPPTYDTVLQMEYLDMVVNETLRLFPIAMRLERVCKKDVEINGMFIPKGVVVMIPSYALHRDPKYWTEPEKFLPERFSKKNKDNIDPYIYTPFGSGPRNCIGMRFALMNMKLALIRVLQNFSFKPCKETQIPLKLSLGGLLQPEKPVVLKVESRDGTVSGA
Sequence of human orexin-1 receptor (O43613 whole entry): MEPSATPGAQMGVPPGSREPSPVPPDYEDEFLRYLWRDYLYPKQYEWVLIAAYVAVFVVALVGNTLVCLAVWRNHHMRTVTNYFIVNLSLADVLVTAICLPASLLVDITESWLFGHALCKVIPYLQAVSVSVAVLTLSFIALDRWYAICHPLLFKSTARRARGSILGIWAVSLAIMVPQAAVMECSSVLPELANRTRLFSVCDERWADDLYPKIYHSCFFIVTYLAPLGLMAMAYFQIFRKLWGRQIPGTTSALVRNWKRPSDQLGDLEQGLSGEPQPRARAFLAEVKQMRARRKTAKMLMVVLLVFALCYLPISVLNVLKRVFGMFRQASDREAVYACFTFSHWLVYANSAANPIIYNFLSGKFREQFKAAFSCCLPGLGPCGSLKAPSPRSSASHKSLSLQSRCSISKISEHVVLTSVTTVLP
Sequence of human orexin-2 receptor (O43614 whole entry): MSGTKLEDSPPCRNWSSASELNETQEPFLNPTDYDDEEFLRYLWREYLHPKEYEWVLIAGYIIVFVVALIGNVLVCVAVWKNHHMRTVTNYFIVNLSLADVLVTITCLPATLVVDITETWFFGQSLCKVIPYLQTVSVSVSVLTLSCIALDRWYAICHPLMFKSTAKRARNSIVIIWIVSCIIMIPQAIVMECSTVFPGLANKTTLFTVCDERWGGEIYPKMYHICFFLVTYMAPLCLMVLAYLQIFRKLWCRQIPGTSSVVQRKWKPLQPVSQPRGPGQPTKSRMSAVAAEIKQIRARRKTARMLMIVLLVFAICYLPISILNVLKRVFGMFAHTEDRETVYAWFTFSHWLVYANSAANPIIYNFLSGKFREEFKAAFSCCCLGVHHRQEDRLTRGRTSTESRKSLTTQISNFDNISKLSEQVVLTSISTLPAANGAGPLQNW

With `O=C(c1ccccc1-n1nccn1)N1CCOC[C@H]1Cc1cccc(-n2cccn2)c1` [Example 16, [(R)-3-(3-Pyrazol-1-yl-benzyl)-morpholin-4-yl]-(2-[1,2,3]triazol-2-yl-phenyl)-methanone], the negative-log IC50 (pIC50) (commonly −log10 of the IC50, conventionally taken in molar units) is 7.52 at human orexin-1 receptor (setting [2]), 5.74 at human orexin-2 receptor (setting [3]) and 4.37 on CYP3A4. For the same molecule, the concentration at 3 h in data set [1] stood at 160 ng/g.
As to `O=C(c1ccc(C(F)(F)F)cc1-n1nccn1)N1CCOC[C@H]1Cc1cccc(-n2nccn2)c1` [Example 76, [(R)-3-(3-[1,2,3]Triazol-2-yl-benzyl)-morpholin-4-yl]-(2-[1,2,3]triazol-2-yl-4-trifluoromethyl-phenyl)-methanone], the pIC50 at human orexin-1 receptor (setting [2]) is 8.70; at human orexin-2 receptor (setting [3]), 6.88; on CYP3A4 it was 5.12. Besides, the concentration at 1 h in data set [1] was determined as 1380 ng/g.
For `Cc1ccc(C(=O)N2CCOC[C@H]2Cc2cc(-n3nccn3)ccc2F)c(-n2nccn2)c1` [Example 62, [(R)-3-(2-Fluoro-5-[1,2,3]triazol-2-yl-benzyl)-morpholin-4-yl]-(4-methyl-2-[1,2,3]triazol-2-yl-phenyl)-methanone], the pIC50 at human orexin-2 receptor (setting [3]) was 6.39; on CYP3A4, 4.54. The concentration at 1 h in data set [1] worked out at 4420 ng/g.
On the same counts, the results for `O=C(c1ccc(C(F)(F)F)cc1-n1nccn1)N1CCOC[C@H]1Cc1cccc(-c2ncon2)c1` [Example 87, [(R)-3-(3-[1,2,4]Oxadiazol-3-yl-benzyl)-morpholin-4-yl]-(2-[1,2,3]triazol-2-yl-4-trifluoromethyl-phenyl)-methanone] are 6.64, 4.82 and 1880 ng/g.
Regarding `Cc1ccc(C(=O)N2CCOC[C@H]2Cc2cc(-c3ncccn3)ccc2F)c(-n2nccn2)c1` [Example 156, [(R)-3-(2-Fluoro-5-pyrimidin-2-yl-benzyl)-morpholin-4-yl]-(4-methyl-2-[1,2,3]triazol-2-yl-phenyl)-methanone], the pIC50 on human orexin-2 receptor (setting [3]) is 6.24; at CYP3A4, less than 4.30. Further, the concentration at 1 h in data set [1] worked out at 613 ng/g.
In the case of `Cc1ccc(-n2nccn2)c(C(=O)N2CCOC[C@H]2Cc2cccc(-n3nccn3)c2)c1` [Example 11, (5-Methyl-2-[1,2,3]triazol-2-yl-phenyl)-[(R)-3-(3-[1,2,3]triazol-2-yl-benzyl)-morpholin-4-yl]-methanone], the values for the pIC50 at human orexin-1 receptor and at human orexin-2 receptor were 8.70 and 6.71, respectively. In addition, in data set [1], the concentration at 3 h came out at 46 ng/g.
`O=C(c1cccc(Cl)c1-n1nccn1)N1CCOC[C@H]1Cc1cc(-n2nccn2)ccc1F` [Example 135, (3-Chloro-2-[1,2,3]triazol-2-yl-phenyl)-[(R)-3-(2-fluoro-5-[1,2,3]triazol-2-yl-benzyl)-morpholin-4-yl]-methanone]: the pIC50 at human orexin-1 receptor (setting [2]) is 7.80; on human orexin-2 receptor (setting [3]), 5.73; on CYP3A4, 4.52.
On the same counts, the results for `Cc1ccc(-n2cccn2)cc1C[C@@H]1COCCN1C(=O)c1cccc(C)c1-n1nccn1` [Example 190, [(R)-3-(2-Methyl-5-pyrazol-1-yl-benzyl)-morpholin-4-yl]-(3-methyl-2-[1,2,3]triazol-2-yl-phenyl)-methanone] are 7.60, 5.42 and 4.59.
Take `Cc1cccc(C(=O)N2C[C@@H](C)OC[C@H]2Cc2cccc(-c3ncccn3)c2)c1-n1nccn1` [Example 111, [(2R,5R)-2-Methyl-5-(3-pyrimidin-2-yl-benzyl)-morpholin-4-yl]-(3-methyl-2-[1,2,3]triazol-2-yl-phenyl)-methanone]: the results for the pIC50 at human orexin-1 receptor (setting [2]), at human orexin-2 receptor (setting [3]) and at CYP3A4 were 8.15, 6.01 and 4.40, respectively.
On the same counts, the results for `O=C(c1cc(F)ccc1-n1nccn1)N1CCOC[C@H]1Cc1cccc(-n2nccn2)c1` [Example 26, (5-Fluoro-2-[1,2,3]triazol-2-yl-phenyl)-[(R)-3-(3-[1,2,3]triazol-2-yl-benzyl)-morpholin-4-yl]-methanone] are 7.68, 6.09 and 4.62.
On the same counts, the results for `Cc1ccc(-n2nccn2)c(C(=O)N2CCOC[C@H]2Cc2cc(-c3ncon3)ccc2F)c1` [Example 174, [(R)-3-(2-Fluoro-5-[1,2,4]oxadiazol-3-yl-benzyl)-morpholin-4-yl]-(5-methyl-2-[1,2,3]triazol-2-yl-phenyl)-methanone] are 8.10, 6.19 and 4.30.
On the same counts, the results for `Cc1ccc(-n2nccn2)c(C(=O)N2CCOC[C@H]2Cc2cccc(-c3nccc(C)n3)c2)c1` [Example 39, {(R)-3-[3-(4-Methyl-pyrimidin-2-yl)-benzyl]-morpholin-4-yl}-(5-methyl-2-[1,2,3]triazol-2-yl-phenyl)-methanone] are 8.30, 6.64 and 4.74.
On to `COc1ccc(C(=O)N2CCOC[C@H]2Cc2cc(-n3nccn3)ccc2F)c(-n2nccn2)c1` [Example 95, [(R)-3-(2-Fluoro-5-[1,2,3]triazol-2-yl-benzyl)-morpholin-4-yl]-(4-methoxy-2-[1,2,3]triazol-2-yl-phenyl)-methanone], for which the pIC50 on human orexin-1 receptor (setting [2]) was 7.96; at human orexin-2 receptor (setting [3]), 5.92; at CYP3A4, 4.31.
For `Cc1cccc(C(=O)N2CCOC[C@H]2Cc2cc(-n3nccn3)ccc2Cl)c1-n1nccn1` [Example 122, [(R)-3-(2-Chloro-5-[1,2,3]triazol-2-yl-benzyl)-morpholin-4-yl]-(3-methyl-2-[1,2,3]triazol-2-yl-phenyl)-methanone], the pIC50 was 8.22 on human orexin-1 receptor (setting [2]), 5.79 at human orexin-2 receptor (setting [3]) and 4.74 on CYP3A4.
On the same counts, the results for `O=C(c1cc(Cl)ccc1-n1nccn1)N1CCOC[C@H]1Cc1cccc(-c2ncccn2)c1` [Example 51, (5-Chloro-2-[1,2,3]triazol-2-yl-phenyl)-[(R)-3-(3-pyrimidin-2-yl-benzyl)-morpholin-4-yl]-methanone] are 8.52, 6.64 and 4.70.
For the molecule `Cc1ccc(-n2nccn2)c(C(=O)N2CCOC[C@H]2Cc2cc(-n3nccn3)ccc2C)c1` [Example 119, [(R)-3-(2-Methyl-5-[1,2,3]triazol-2-yl-benzyl)-morpholin-4-yl]-(5-methyl-2-[1,2,3]triazol-2-yl-phenyl)-methanone], the negative-log IC50 (pIC50) at human orexin-1 receptor (setting [2]) was 8.22; at human orexin-2 receptor (setting [3]), 6.23; on CYP3A4, 4.72.
On to `COc1ccc(C[C@@H]2COCCN2C(=O)c2ccccc2-n2nccn2)cc1-c1nccs1` [Example 8, [(R)-3-(4-Methoxy-3-thiazol-2-yl-benzyl)-morpholin-4-yl]-(2-[1,2,3]triazol-2-yl-phenyl)-methanone], for which the pIC50 on human orexin-1 receptor (setting [2]) is 9.00; at human orexin-2 receptor (setting [3]), 6.47; on CYP3A4, 5.49.
On the same counts, the results for `COc1ccc(C[C@@H]2COCCN2C(=O)c2ccccc2-n2nccn2)cc1-c1ncccn1` [Example 5, [(R)-3-(4-Methoxy-3-pyrimidin-2-yl-benzyl)-morpholin-4-yl]-(2-[1,2,3]triazol-2-yl-phenyl)-methanone] are 8.40, 5.53 and less than 4.30.
As for `O=C(c1cc(F)ccc1-n1nccn1)N1CCOC[C@H]1Cc1cccc(-n2cccn2)c1` [Example 20, (5-Fluoro-2-[1,2,3]triazol-2-yl-phenyl)-[(R)-3-(3-pyrazol-1-yl-benzyl)-morpholin-4-yl]-methanone], the negative-log IC50 (pIC50) is 7.60 at human orexin-1 receptor (setting [2]), 5.82 on human orexin-2 receptor (setting [3]) and 4.60 at CYP3A4.
With `O=C(c1cc(Cl)ccc1-n1nccn1)N1CCOC[C@H]1Cc1cc(-n2nccn2)ccc1F` [Example 129, (5-Chloro-2-[1,2,3]triazol-2-yl-phenyl)-[(R)-3-(2-fluoro-5-[1,2,3]triazol-2-yl-benzyl)-morpholin-4-yl]-methanone], the pIC50 at human orexin-1 receptor (setting [2]) was 7.92; on human orexin-2 receptor (setting [3]), 6.73; at CYP3A4 it was 4.59.
As for `Cc1ccc(C(=O)N2CCOC[C@H]2Cc2cccc(-n3nccn3)c2F)c(-n2nccn2)c1` [Example 183, [(R)-3-(2-Fluoro-3-[1,2,3]triazol-2-yl-benzyl)-morpholin-4-yl]-(4-methyl-2-[1,2,3]triazol-2-yl-phenyl)-methanone], the values for the pIC50 at human orexin-1 receptor, at human orexin-2 receptor and on CYP3A4 were 7.82, 5.67 and less than 4.30, respectively.
For `O=C(c1cccc(F)c1-n1nccn1)N1CCOC[C@H]1Cc1cccc(-n2nccn2)c1` [Example 54, (3-Fluoro-2-[1,2,3]triazol-2-yl-phenyl)-[(R)-3-(3-[1,2,3]triazol-2-yl-benzyl)-morpholin-4-yl]-methanone], the results for the negative-log IC50 (pIC50) at human orexin-1 receptor (setting [2]), at human orexin-2 receptor (setting [3]) and on CYP3A4 were 7.34, 5.74 and less than 4.30, respectively.
